Data on twelve compounds can be found in patent US10947251B2, “Therapeutic compounds and methods of use thereof” (GENENTECH, INC., priority 2018, dated 2021).

Structures are written as SMILES.

Test [1] has as its target T1, hNav1.7 (Homo sapiens (Human), UniProt Q15858). The test is described as follows: Tritiated compound binding to membranes from cells heterologously expressing hNav1.7 and the β1 subunit (LBA). The settings on record: competitive binding vs [3H]compound, membranes with hNav1.7 and β1 subunit; read-out: Nav1.7 LBA EVO IC50. The protocol:
Example 39A. Tritiated Compound Binding to Membranes Isolated from Cells that Heterologously Express hNav1.7 and the β1 Subunit
Preparation of membranes containing recombinantly expressed sodium channels: Frozen recombinant cell pellets were thawed on ice and diluted to 4 times the cell pellet weight with ice cold 50 mM Tris HCl, pH 7.4 buffer. The cell suspensions were homogenized on ice using a motorized glass dounce homogeniser. Homogenates were further diluted 8.4 times with ice cold 50 mM Tris HCl, pH 7.4 buffer and then centrifuged at 200×g at 4° C. for 15 min. The supernatants were collected and centrifuged at 10000×g at 4° C. for 50 min. The pellets were then re-suspended in 100 mM NaCl, 20 mM Tris HCl, pH 7.4 buffer containing 1% v/v protease inhibitors (Calbiochem) and re-homogenized on ice. The homogenized membranes were then processed through a syringe equipped with a 26 gauge needle. Protein concentrations were determined by Bradford Assay and the membranes were stored at −80° C.
Saturation experiments. A competitive NaV1.7 inhibitor having a methyl group was tritiated. Three tritiums were incorporated in place of methyl hydrogens to generate [^3H]compound. Binding of this radioligand was performed in 5 mL borosilicate glass test tubes at room temperature. Binding was initiated by adding membranes to increasing concentrations of [^3H]compound in 100 mM NaCl, 20 mM Tris HCl, pH 7.4 buffer containing 0.01% w/v bovine serum albumin (BSA) for 18 h. Non-specific binding was determined in the presence of 1 μM unlabeled compound. After 18 h, the reactants were filtered through GF/C glass fiber filters presoaked in 0.5% w/v polyethylene imine. Filters were washed with 15 mL ice cold 100 mM NaCl, 20 mM Tris HCl, pH7.4 buffer containing 0.25% BSA to separate bound from free ligand. [^3H]compound bound to filters was quantified by liquid scintillation counting.
Binding reactions were performed in 96-well polypropylene plates at room temperature for 18 h. In 360 μL, membranes were incubated with 100 pM [^3H]compound and increasing concentrations of Test Compound. Non-specific binding was defined in the presence of 1 μM unlabeled compound. Reactions were transferred and filtered through 96-well glass fiber/C filter plates presoaked with 0.5% polyethylene imine. The filtered reactions were washed 5 times with 200 μL ice cold buffer containing 0.25% BSA. Bound radioactivity was determined by liquid scintillation counting.
For saturation experiments, non-specific binding was subtracted from total binding to provide specific binding and these values were recalculated in terms of pmol ligand bound per mg protein. Saturation curves were constructed and dissociation constants were calculated using the single site ligand binding model: Beq=(Bmax*X)/(X+Kd), where Beq is the amount of ligand bound at equilibrium, Bmax is the maximum receptor density, Kd is the dissociation constant for the ligand, and X is the free ligand concentration. For competition studies percent inhibition was determined and IC50 values were calculated using a 4 parameter logistic model (% inhibition=(A+((B−A)/(1+((x/C)^D)))) using XLfit, where A and B are the maximal and minimum inhibition respectively, C is the IC50 concentration and D is the (Hill) slope.
Example 39B. Tritiated Compound Binding to Membranes Isolated from Cells that Heterologous Express hNav1.7 and the β1 Subunit
Following the procedure described in Example 39A, and making modifications as required to: centrifuge supernatants at 100000×g instead of 10000×g; re-suspend pellets in a buffer containing 0.01% BSA in addition to 100 mM NaCl, 20 mM Tris HCl, pH 7.4 buffer, and 1% v/v […]; and storing membranes at −80° C. in single use aliquots instead of pooled.
Saturation experiments: Following the procedure described in Example 243A, and making modifications as required to incubate [3H]compound for 3 hours instead of 18 hours. […]

Test [2] concerns the target T1, hNav1.7. The test is described as follows: Electrophysiological assay (EP), voltage clamp on Syncropatch 384PE. The settings on record: CHO cells expressing Nav1.7, holding potential −50 mV, 7.5 min compound incubation; read-out: EP_SP hNav1.7 EVO IC50. The format is cell-based. The source says: Example 39C. Electrophysiological Assay (EP) (In Vitro Assay)
Patch voltage clamp electrophysiology allows for the direct measurement and quantification of block of voltage-gated sodium channels (NaV's), and allows the determination of the time- and voltage-dependence of block which has been interpreted as differential binding to the resting, open, and inactivated states of the sodium channel (Hille, B., Journal of General Physiology (1977), 69: 497-515).
The following voltage clamp electrophysiology studies were performed on representative compounds using cells heterologously expressing Nav1.7 or Nav1.5 channels. cDNAs for Nav1.7 (NM_002977) and Nav1.5 (AC137587) were stably expressed in Chinese Hamstr Ovary (CHO) cells and CHL (Chinese Hamster Lung) cells respectively. Sodium currents were measured in the whole-cell configuration using Syncropatch 384PE (Nanlon Technologies, Germany). 1NPC®-384 chips with custom medium resistance and single hole mode are used. Internal solution consists of (in mM): 110 […], 10 CsCl, 20 EGTA, and 10 Hepes (pH adjusted to 7.2); and external solution contains (in mM): 60 NMDG, 80 NaCl, 4 KCl, 1 MgCl2, 2 CaCl2, 2 D-Glucose monohydrate, 10 Hepes (pH adjusted to 7.4 with NaOH).
After system flushing, testing compounds are dissolved in external solution containing 0.1% Pluronic F-127. The chip is moved into the measuring head and the instrument primes the chip with external and internal solutions. 10 l cells are added to the chip from a cell hotel, and a negative pressure of −50 mBar is applied to form a seal. Following treatment with seal enhancer solution and wash-off with external solution, negative pressure of −250 mbar is applied for 1 second to achieve the whole-cell configuration, followed by three washing steps in external solution. 20 µl of compounds is added to 40 µl in each well (1:3 dilution of compounds), and after mixing, 20 l is removed so the volume is retained at 40 ul. After approximately 13 minutes recordings, 20 µl/well of 2 uM TTX, or 333 uM Tetracaine (for Nav1.5) is added to achieve full block.
For voltage protocol, an holding potential of −50 mV is applied during the whole experiment. A depolarizing step is applied to −10 mV for 10 ms, followed by a hyperpolarization step to −150 mV for 20 ms to allow channel recovery from inactivation. A second depolarizing step is applied from −150 mV to −10 mV for 10 ms, where currents were measured to derive blocking effects of compounds. Inhibition is determined based on 7.5 min of compound incubation.
Background: In patch-clamp work, channel activity is measured electrically.

Broadly, the IC50 is the concentration that inhibits the measured activity by half. For the compound `COc1cc(-c2cccc(Cl)c2)c(F)cc1N1C(=O)CO[C@H]2CN(S(=O)(=O)Nc3ccon3)CC[C@@H]21` [Example 14, (4aS,8aS)-1-(3′-chloro-2-fluoro-5-methoxy-[1,1′-biphenyl]-4-yl)-N-(isoxazol-3-yl)-2-oxohexahydro-1H-pyrido[3,4-b][1,4]oxazine-6(7H)-sulfonamide], the IC50 in test [1] was found to be 332 nM; in test [2] it was 7.21 nM.

Regarding `COc1cc(-c2cccc(C(F)F)c2)c(F)cc1N1C(=O)CO[C@@H]2CN(S(=O)(=O)Nc3ccon3)CC[C@H]21` [Example 15, (4aR,8aR)-1-(3′-(difluoromethyl)-2-fluoro-5-methoxy-[1,1′-biphenyl]-4-yl)-N-(isoxazol-3-yl)-2-oxohexahydro-1H-pyrido[3,4-b][1,4]oxazine-6(7H)-sulfonamide], the half-inhibitory concentration (IC50) was 2000 nM in test [1] and 46.7 nM in test [2].

`COc1nc(-c2cccc(C(F)(F)F)c2)c(F)cc1N1C(=O)CO[C@H]2CN(S(=O)(=O)Nc3ccon3)CC[C@@H]21` [Example 22, (4aS,8aS)-1-(5-fluoro-2-methoxy-6-(3-(trifluoromethyl)phenyl)pyridin-3-yl)-N-(isoxazol-3-yl)-2-oxohexahydro-1H-pyrido[3,4-b][1,4]oxazine-6(7H)-sulfonamide]: the 50% inhibitory concentration (IC50) in test [1] came to 907 nM; in test [2], 66.8 nM.

As for `COc1cc(-c2cccc(F)c2)c(F)cc1N1C(=O)CO[C@H]2CN(S(=O)(=O)Nc3ccon3)CC[C@@H]21` [Example 10, (4aS,8aS)-1-(2,3′-difluoro-5-methoxy-[1,1′-biphenyl]-4-yl)-N-(isoxazol-3-yl)-2-oxohexahydro-1H-pyrido[3,4-b][1,4]oxazine-6(7H)-sulfonamide], the IC50 in test [1] amounted to 716 nM; in test [2] it was 47.8 nM.

`COc1cc(-c2cc(C(F)(F)F)ccc2F)c(F)cc1N1C(=O)CO[C@@H]2CN(S(=O)(=O)Nc3ccon3)CC[C@H]21` [Example 7, (4aR,8aR)-1-(2,2′-difluoro-5-methoxy-5′-(trifluoromethyl)-[1,1′-biphenyl]-4-yl)-N-(isoxazol-3-yl)-2-oxohexahydro-1H-pyrido[3,4-b][1,4]oxazine-6(7H)-sulfonamide]: the IC50 in test [1] turned out to be 167 nM; in test [2], 5.76 nM.

Consider `COc1cc(-c2cccc(Cl)c2)c(F)cc1N1C(=O)CO[C@@H]2CN(S(=O)(=O)Nc3ccon3)CC[C@H]21` [Example 13, (4aR,8aR)-1-(3′-chloro-2-fluoro-5-methoxy-[1,1′-biphenyl]-4-yl)-N-(isoxazol-3-yl)-2-oxohexahydro-1H-pyrido[3,4-b][1,4]oxazine-6(7H)-sulfonamide], for which the concentration for half-maximal inhibition (IC50) in test [1] was 471 nM; in test [2], 11.7 nM.

With `COc1cc(-c2cccc(C(F)(F)F)c2)cc(F)c1N1C(=O)CO[C@H]2CN(S(=O)(=O)Nc3ccon3)CC[C@@H]21` [Example 20, (4aS,8aS)-1-(3-fluoro-5-methoxy-3′-(trifluoromethyl)-[1,1′-biphenyl]-4-yl)-N-(isoxazol-3-yl)-2-oxohexahydro-1H-pyrido[3,4-b][1,4]oxazine-6(7H)-sulfonamidede], the IC50 in test [1] is 2000 nM; in test [2], 39.8 nM.

On to `COc1cc(-c2cccc(C(F)(F)F)c2)c(F)cc1N1CCO[C@@H]2CN(S(=O)(=O)Nc3ccncn3)CC[C@H]21` [Example 27, (4aR,8aR)-1-(2-fluoro-5-methoxy-3′-(trifluoromethyl)-[1,1′-biphenyl]-4-yl)-N-(pyrimidin-4-yl)hexahydro-1H-pyrido[3,4-b][1,4]oxazine-6(7H)-sulfonamide], for which the IC50 is 21.2 nM in test [1] and 2.02 nM in test [2].

Regarding `COc1cc(-c2cccc(C(F)(F)F)c2F)c(F)cc1N1C(=O)CO[C@@H]2CN(S(=O)(=O)Nc3ccon3)CC[C@H]21` [Example 11, (4aR,8aR)-1-(2,2′-difluoro-5-methoxy-3′-(trifluoromethyl)-[1,1′-biphenyl]-4-yl)-N-(isoxazol-3-yl)-2-oxohexahydro-1H-pyrido[3,4-b][1,4]oxazine-6(7H)-sulfonamide], the values for the IC50 in test [1] and in test [2] were 230 nM and 11.2 nM, respectively.

`COc1cc(-c2ccc(F)c(C(F)(F)F)c2)c(F)cc1N1C(=O)CO[C@H]2CN(S(=O)(=O)Nc3ccon3)CC[C@@H]21` [Example 2, (4aS,8aS)-1-(2,4′-difluoro-5-methoxy-3′-(trifluoromethyl)-[1,1′-biphenyl]-4-yl)-N-(isoxazol-3-yl)-2-oxohexahydro-1H-pyrido[3,4-b][1,4]oxazine-6(7H)-sulfonamide]: the IC50 in test [1] was found to be 38.4 nM; in test [2] it was 0.915 nM.

Take `N#Cc1cc(-c2cccc(C(F)(F)F)c2)c(F)cc1N1C(=O)CO[C@@H]2CN(S(=O)(=O)Nc3ccon3)CC[C@H]21` [Example 23, (4aR,8aR)-1-(5-cyano-2-fluoro-3′-(trifluoromethyl)-[1,1′-biphenyl]-4-yl)-N-(isoxazol-3-yl)-2-oxohexahydro-1H-pyrido[3,4-b][1,4]oxazine-6(7H)-sulfonamide]: the IC50 came out at 2000 nM in test [1] and 50.1 nM in test [2].

On to `N#Cc1cc(-c2cccc(C(F)(F)F)c2)c(F)cc1N1C(=O)CO[C@H]2CN(S(=O)(=O)Nc3ccon3)CC[C@@H]21` [Example 24, (4aS,8aS)-1-(5-cyano-2-fluoro-3′-(trifluoromethyl)-[1,1′-biphenyl]-4-yl)-N-(isoxazol-3-yl)-2-oxohexahydro-1H-pyrido[3,4-b][1,4]oxazine-6(7H)-sulfonamide], for which the IC50 in test [1] was 2000 nM; in test [2], 237 nM.
